Experimental data: publication PMC3537892 (Clinical cancer research : an official journal of the …, 2012)

Tested on: RENCA renal cancer cells grafted in the renal capsule
Test: Orthotopic RENCA renal cancer allograft
Assay type: in vivo, BALB/c mice
Settings: three i.v. injections in fourth week after grafting; p < 0.003

Q: `CC(=O)O[C@H]1C(=O)[C@@]2(C)[C@H]([C@H](OC(=O)c3ccccc3)[C@]3(O)C[C@H](OC(=O)[C@H](O)[C@@H](NC(=O)c4ccccc4)c4ccccc4)C(C)=C1C3(C)C)[C@]1(OC(C)=O)CO[C@@H]1C[C@@H]2O` [PTX, paclitaxel] was tested. Which “tumor volume compared to vehicle control” value did it give?
A: significantly decreased tumor volume
